Patent US5498522A, “Methods for the use of spermidine/spermine N^1 -acetyltransferase as a prognostic indicator and/or a tumor response marker” (priority 1993, dated 1996)
“And” between values parts separate entries of the source, which are not always exact repeats. Equal entries are not always repeated. “Also recorded” adds a separate entry of the source.

Experiments:
[1] = BENSPM (analog) pools in tumor and host tissue; type: in vivo, mouse; design: BENSPM pool (tissue content): unit not given here
[2] = tested on: human melanoma xenografts; test: antitumor response, human melanoma xenografts, dose comparison and general; type: in vivo; settings: MALME-3, SH-1, PANUT-3, LOX
Method: The in-vivo antitumor activities of BESPM, BEHSPM, and BENSPM, were compared against various human xenografts in nude athymic mice. Cultured human tumor cells were first passaged several times in female HSD nude athymic mice. Fragments of resultant tumor were implanted into mice via subcutaneous trocar implantation. Mice of different treatment groups were treated with one or more of the three bis-ethyl spermine analogs BESPM, BEHSPM, and BENSPM. Anti-proliferative activity was monitored by antitumor responses including tumor growth suppression, tumor regression, or repression of regrowth.
For example, human melanoma cell lines including MALME-3, SH-1, PANUT-3 and LOX were evaluated for the level of SSAT induction and potency of antitumor response following BENSPM treatment (80 mg/kg 3×/day×6 days) using the methodology previously described in this embodiment. […] The baseline of SSAT activity in the control mice (2 examined of 7 mice) ranged from 50 to 90 pmol/min/mg. […] Note that following BENSPM treatment (as discussed above in the context of Tables 4 and 5), suppression of tumor growth of PANUT-3, unlike suppression of MALME-3 growth, lasted for only about 12 days. Further, the levels of SSAT in PANUT-3 at two weeks post-treatment, approached the levels in the control and correlated with the loss of antitumor activity.

[3] = tested on: polyamine pools of host tissue; test: polyamine pools in host tissue of treated mice; type: in vivo, mouse; design: unit not given here; settings: 40 mg/kg
[4] = tested on: A121 human ovarian adenocarcinoma xenografts; test: antitumor response against A121 human ovarian adenocarcinoma xenografts in mice; type: in vivo
Method: […] where 1 represents length; w--width; and h--height. Tumor sizes were monitored 2 times/week until the median volume (V=0.4(a^2 ×b) where a is the smaller of the two perpendicular tumor diameters). As an indication of drug toxicity, animal weights were also recorded at the time of tumor volume measurement. Statistical analyses were performed on mouse tumor size and weight parameters by using the Mann-Whitney test.
Tumor growth suppression was measured by plotting the mean tumor volume versus the number of days post-inoculation with polyamine analog (growth curve analyses). Suppression is determined by comparison with the growth of untreated tumors (%T/C). More specifically,: %T/C is (treated tumor volume minus pretreatment volume) divided by (control tumor volume minus pretreatment volume)×100. Typically this is measured either when the control tumor volume reaches 1000 mm^3, or at the last day of treatment.
Tumor regression is measured as a percentage representing the average percentage of decrease in tumor volume from the largest pretreatment volume value.
Repression of regrowth is represented as regrowth delay, determined as the number of days following cessation of treatment when median group tumor volume exceeds 200 mm^3 (an arbitrary indication of regrowth which was determined statistically).
Cells from malignant solid human tumor tissue types, other than melanoma, have also been evaluated for their responsiveness to polyamine analog treatment including clonal cell lines A121 (human ovarian adenocarcinoma),A549 (lung adenocarcinoma), and HT29 colon adenocarcinoma). These cell lines were evaluated for the level of SSAT induction and potency of antitumor response following BENSPM treatment (80 mg/kg 3×/day×6 days) in-vivo using the methodology previously described in this embodiment. Also, dose of BENSPM was compared (80 mg/kg versus 40 mg/kg). The baseline of SSAT activity in the control mice (2 of 7 mice) ranged from 40 to 90 pmol/min/mg. Tumor cells from the human xenografts A121, A549, and HT29 were removed from two mice of each treated group of seven mice containing the respective xenograft at 16 hours following the final BENSPM injection to evaluate the level of induction of SSAT activity. […] The response to the polyamine analog was heterotypic. […] As discussed previously, it is not known whether the heterotypic antitumor response may be due to either the individual properties of the clonal line or the particular solid tumor type.

[5] = tested on: ornithine decarboxylase (ODC); test: ODC activity in human melanoma xenografts in-vivo
LOX human melanoma cells = test: growth of LOX melanoma cells in-vitro (FIG. 5); type: cell-based; settings: 10 μM BESPM, 48 hours
Method: (§1) As mentioned previously, cells from malignant solid tumor respond to polyamine analog therapy heterotypically. SSAT induction and antitumor response may vary not only among the solid tumor tissue type, but also with the clonal line of tumor of a particular solid tissue type. However, a correlation between the level of induction of SSAT and the potency of antitumor response has been observed in tumors of a particular solid tissue type. For example, seven human melanoma cell lines were assayed in-vitro for their response, as determined by cell growth and level of SSAT induction, to 10 μM BESPM at 48 hours post-treatment. As summarized in FIG. 5, growth among the cell lines decreases as SSAT induction increases.

[6] = tested on: MALME-3 human melanoma cells; test: growth of MALME-3 melanoma cells in-vitro (FIG. 5); type: cell-based; settings: MALME-3, 10 μM BESPM, 48 hours
Method: as §1

[7] = tested on: NCI H157 human large cell lung carcinoma cell line; settings: cited from earlier work
MALME-3 melanoma cells = test: N^1 -acetylspermidine in MALME-3 cell cultures; type: cell-based, human; settings: MALME-3, 10 μm BESPM, 48 hours
Method: To illustrate this embodiment, LOX and MALME-3 cell cultures were treated for 48 hours with 10 μm BESPM. The cells from each culture were harvested and assayed for SSAT activity. Media samples were prepared by treating the samples with 50% trichloroacetic acid to give a final concentration of 10% and then centrifuged at 15,000×g for 10 minutes. The supernatant was then filtered through a 0.22-μm filter, extracted with several volumes of ether, lyophilized, and resuspended in 10% trichloroacetic acid. N^1 -acetylspermidine levels of cells and media samples were then measured by use of high-pressure liquid chromatography. […] Similarly, N^1 -acetylspermidine levels from MALME-3 control cells, media from control cell cultures, and treated MALME-3 cells contained minimal levels of N^1 -acetylspermidine.

[8] = tested on: Ebey human melanoma cells; test: growth of Ebey melanoma cells in-vitro (FIG. 5); type: cell-based; settings: 10 μM BESPM, 48 hours
Method: as §1

[9] = A121, BENSPM 80 mg/kg 3x/d × 6d

Which “BENSPM pool (tissue content)” value ([1]; MALME-3 tumor, 40 mg/kg 3x/day 6 days, 16 hrs post-treatment) does the source give for `CCNCCCNCCCNCCCNCC` [BENSPM, N^1,N^11 -bis(ethyl)norspermine] here?
The value was 1020/1535.

And the “BENSPM pool (tissue content)” value ([1]; MALME-3 tumor, 40 mg/kg, 2 wks post-treatment)?
Its value is 620/470.

And the “BENSPM pool (tissue content)” value ([1]; kidney, 40 mg/kg, 2 wks post-treatment)?
The value was 90/150.

And the “BENSPM pool (tissue content)” value ([1]; kidney, 40 mg/kg, 16 hrs post-treatment)?
The value was 860/1705.

And the “BENSPM pool (tissue content)” value ([1]; liver, 40 mg/kg, 2 wks post-treatment)?
Its value is 40/40.

What about the “BENSPM pool (tissue content)” value ([1]; liver, 40 mg/kg, 16 hrs post-treatment) of the same compound?
Its value is 1180/1470.

What about the “metabolite peak of BENSPM” value ([1]; tumor, kidney and liver, 40 mg/kg, 16 hrs post-treatment) of the same compound?
The value was “a peak which was similar in height to the SPM peak”.

And the “antitumor response at 40 mg/kg versus 80 mg/kg” value [2]?
The value was “very similar to the response at 80 mg/kg”.

What about the PUT pool ([3]; kidney, 2 wks post-treatment) of the same compound?
Its PUT pool is 20/20.

And the SPD pool ([3]; kidney, 2 wks post-treatment)?
Its SPD pool is 210/210.

And the SPM pool ([3]; kidney, 2 wks post-treatment)?
Its SPM pool is 360/370.

And the PUT pool ([3]; kidney, 16 hrs post-treatment)?
Its PUT pool is 100/40.

And the SPD pool ([3]; kidney, 16 hrs post-treatment)?
Its SPD pool is 100/100.

And the SPM pool ([3]; kidney, 16 hrs post-treatment)?
Its SPM pool is 260/250.

What about the PUT pool ([3]; liver, 2 wks post-treatment) of the same compound?
The PUT pool was 20/20.

What about the SPD pool ([3]; liver, 2 wks post-treatment) of the same compound?
Its SPD pool is 530/530.

What about the SPM pool ([3]; liver, 2 wks post-treatment) of the same compound?
The SPM pool was 400/330.

What about the PUT pool ([3]; liver, 16 hrs post-treatment) of the same compound?
The PUT pool was 90/100.

What about the SPD pool ([3]; liver, 16 hrs post-treatment) of the same compound?
Its SPD pool is 80/90.

What about the SPM pool ([3]; liver, 16 hrs post-treatment) of the same compound?
The SPM pool was 170/200.

What about the “% T/C at 1 g” value [4, 9] of the same compound?
Its value is < 0%.

What about the “Tumor Regression” value [4, 9] of the same compound?
The value was “showed tumor regression; also recorded: Present”.

What about the “Regrowth Delay” value ([4]; A121, BENSPM 80 mg/kg 3x/d × 6d, dt 5 days) of the same compound?
Its value is 3.2 × dt.

And the “No Regrowth” value ([4]; A121, BENSPM 80 mg/kg 3x/d × 6d, for duration of experiment)?
Its value is 2 of 5 and 2/5.

What about the “total growth suppression period” value ([4]; A121 xenograft, 80 mg/kg 3×/day×6 days) of the same compound?
Its value is 16 days.

And the “ODC levels” value ([5]; MALME-3 study)?
Its value is “ODC and SAMDC levels were not suppressed”.

And the “ODC levels” value ([5]; PANUT-3 study)?
Its value is “ODC and SAMDC levels were not suppressed”.

For `CCNCCCNCCCCNCCCNCC` [BESPM, N^1,N^12-bis(ethyl)spermine], which “growth inhibition (FIG. 5)” value (LOX human melanoma cells) is on record?
The value was “least growth inhibition”.

And the “growth inhibition (FIG. 5)” value [6]?
Its value is “greatest growth inhibition”.

And the “cytotoxic response and SSAT induction” value [7]?
The value was “associated with a high induction of SSAT”.

And the “N^1 -acetylspermidine Intracellular” value (MALME-3 melanoma cells)?
The value was 0.1 nmol/culture.

What about the “growth inhibition (FIG. 5)” value [8] of the same compound?
Its value is “greatest growth inhibition”.
